Source: ChEMBL document CHEMBL4219231, “Nε-Acryloyllysine Piperazides as Irreversible Inhibitors of Transglutaminase 2: Synthesis, Structure-Activity Relationships, and Pharmacokinetic Profiling” (J Med Chem, 2018)
≈ marks a conversion by molar mass, not a printed value. Calls of active or inactive are those of the source. The rule behind the calls is not given here.

Columns and labels:
[1] = species on record: Homo sapiens; test: Selectivity index, ratio of Kinact/Ki for human TGase 2 to Kinact/Ki for human TGase 1
[2] = Thermodynamic solubility of the compound in 0.01 M phosphate buffer at pH 7.4 at 22 degC after 26 hrs by UPLC-DAD-MS analysis; assay type: physicochemical; details: read-out: Therm_solubility
[3] = species on record: Homo sapiens; test: Selectivity index, ratio of Kinact/Ki for human TGase 2 to Kinact/Ki for human Factor 13a
[4] = Metabolic stability in mouse liver microsomes assessed as parent compound remaining at 100 uM measured after 60 mins by HPLC-UV analysis; assay type: ADME, microsome; details: microsomes, 1 h, 100 µM
[5] = Drug metabolism in mouse liver microsomes assessed as metabolic transformation at pyridylpiperazine moiety at 100 uM measured after 60 mins by EPI-mass spectroscopy; assay type: ADME, microsome; details: 1 h
[6] = Membrane retention, RM of the compound; assay type: physicochemical
[7] = n-octanol-phosphate buffer partition coefficient, log D of compound at pH 7.4 by 19F NMR analysis; assay type: physicochemical
[8] = species on record: Homo sapiens; test: Selectivity index, ratio of Kinact/Ki for human TGase 2 to Kinact/Ki for human TGase 3
[9] = Chromatographic hydrophobicity index in immobilized artificial membrane at pH 7.4 by HPLC method; assay type: ADME, cell membranes
[10] = in vitro; details: PAMPA
Description: Effective permeability of the compound by PAMPA assay

[11] = target: T1, Protein-glutamine gamma-glutamyltransferase (Homo sapiens, UniProt P21980); test: Inhibition of human TGase 2 using R-I-Cad/DMC as substrate preincubated for 5 mins followed by substrate addition measured at 30 secs interval over 900 secs by fluorescence anisotropy assay
T1 sequence (P21980 whole entry): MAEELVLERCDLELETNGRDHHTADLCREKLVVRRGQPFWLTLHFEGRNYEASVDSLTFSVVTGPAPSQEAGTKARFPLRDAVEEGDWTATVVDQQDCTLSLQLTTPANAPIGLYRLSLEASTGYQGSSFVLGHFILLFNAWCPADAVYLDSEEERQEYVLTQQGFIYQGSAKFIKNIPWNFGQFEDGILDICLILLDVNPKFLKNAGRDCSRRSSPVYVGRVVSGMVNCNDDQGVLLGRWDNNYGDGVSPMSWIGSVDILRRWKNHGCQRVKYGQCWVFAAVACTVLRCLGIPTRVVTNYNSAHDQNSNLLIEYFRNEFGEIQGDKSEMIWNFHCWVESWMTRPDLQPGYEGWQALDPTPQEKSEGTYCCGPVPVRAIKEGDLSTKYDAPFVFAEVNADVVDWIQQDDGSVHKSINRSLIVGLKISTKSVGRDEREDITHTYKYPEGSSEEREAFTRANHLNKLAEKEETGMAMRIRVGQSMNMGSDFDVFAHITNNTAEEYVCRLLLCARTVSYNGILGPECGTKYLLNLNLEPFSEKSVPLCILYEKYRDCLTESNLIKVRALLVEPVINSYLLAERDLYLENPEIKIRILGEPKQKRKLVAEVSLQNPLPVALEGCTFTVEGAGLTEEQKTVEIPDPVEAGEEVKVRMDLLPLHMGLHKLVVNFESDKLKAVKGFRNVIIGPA

[12] = species on record: Homo sapiens; test: Selectivity index, ratio of Kinact/Ki for human TGase 2 to Kinact/Ki for human TGase 6
[13] = target: T1, Protein-glutamine gamma-glutamyltransferase; test: Inhibition of TGase 2 in human A375 cells using R-I-Cad/DMC as substrate preincubated for 5 mins followed by substrate addition measured at 30 secs interval over 900 secs by fluorescence anisotropy assay; assay type: cell-based
[14] = target: T1, Protein-glutamine gamma-glutamyltransferase; test: Reversible inhibition of human TGase 2 using Z-Glu(HMC)-Gly-OH as substrate measured at 20 secs interval over 900 secs by fluorimetric assay
[15] = Inhibition of guinea pig TGase 2 using F-Cad/DMC as substrate preincubated for 30 mins followed by substrate addition measured at 30 secs interval over 900 secs by fluorescence anisotropy assay; set-up: species or system Cavia porcellus
[16] = target: T1, Protein-glutamine gamma-glutamyltransferase; test: Irreversible inhibition of human TGase 2 using Z-Glu(HMC)-Gly-OH as substrate measured at 20 secs interval over 900 secs by fluorimetric assay
[17] = target: T2, Protein-glutamine gamma-glutamyltransferase (Homo sapiens) (UniProt P21980); test: Inhibition of human TGase 2 assessed as enzyme activity factor using R-I-Cad/DMC as substrate at 10 to 240 nM preincubated for 40 mins followed by substrate addition measured at 30 secs interval over 900 secs by fluorescence anisotropy assay; set-up: scale not given: the % may be the effect or the level left
T2 sequence (whole entry): T1 sequence (P21980 whole entry)

[18] = target: T2, Protein-glutamine gamma-glutamyltransferase (Homo sapiens); test: Inhibition of human TGase 2 assessed as enzyme activity factor using Z-Glu(HMC)-Gly-OH as substrate at 5 to 100 nM preincubated for 40 mins followed by substrate addition measured over 300 secs by fluorimetric assay; set-up: scale not given: the % may be the effect or the level left
[19] = Thermodynamic solubility of the compound in 0.01 M phosphate buffer at pH 7.4 at 22 degC after 39 hrs by UPLC-DAD-MS analysis; assay type: physicochemical; details: read-out: Therm_solubility
[20] = target: T2, Protein-glutamine gamma-glutamyltransferase (Homo sapiens); test: Irreversible inhibition of human TGase 2 using Z-Glu(HMC)-Gly-OH as substrate up to 25 uM measured at 20 secs interval over 900 secs by fluorimetric assay

Selectivity Index [1]	solubility thermodynamic at 26 h [2]	Selectivity Index [3]	Stability [4]	Drug metabolism [5]	Rm [6]	logD [7]	Selectivity Index [8]	CHI [9]	Papp [10]	IC50 [11]	Selectivity Index [12]	IC50 [13]	Ki [14]	IC50 [15]	Ki [16]	Activity [17]	Activity [18]	solubility thermodynamic at 39 h [19]	inhibition [20]	SMILES
275 to 1920	645 µM (≈ 311 µg/mL)	275 to 1920	Unstable	Metabolite_Detected	14%	2.1	275 to 1920	31.8	13.3 ×10⁻⁶ cm/s	110 nM	275 to 1920	1100 nM	6280 nM	200 nM						C=CC(=O)NCCCC[C@H](NC(=O)Cc1ccccc1)C(=O)N1CCN(c2cccc(F)n2)CC1
										90 nM				150 nM	2450 nM	80%	74.4%			C=CC(=O)NCCCC[C@H](NC(=O)Cc1ccccc1)C(=O)N1CCN(c2ccc([N+](=O)[O-])nc2)CC1
275 to 1920		275 to 1920			10%		275 to 1920	30.7	9.16 ×10⁻⁶ cm/s	100 nM	275 to 1920	400 nM	2260 nM	120 nM				452 µM (≈ 230 µg/mL)	Active	C=CC(=O)NCCCC[C@H](NC(=O)Cc1ccccc1)C(=O)N1CCN(c2cccc([N+](=O)[O-])n2)CC1
